The compounds below were run against cAMP-dependent protein kinase type I-alpha regulatory subunit (Bos taurus) + cAMP-dependent protein kinase catalytic subunit beta (Mus musculus) (UniProt P00514+P68181) (assay: activation of PKA-R1A holoenzyme dissociation, dose response, counter-screen for PKA-R2B activator project, biochemical, Cy5-IP20 fluorescence polarization, 1536-well, triplicate (AID 504896)).
In the case of `Nc1ncnc2c1nc(Br)n2[C@@H]1O[C@@H]2COP(=O)(O)O[C@H]2[C@H]1O`, the EC50 is reported as 34.4 nM.
`Nc1ncnc2c1nc(Sc1ccc(Cl)cc1)n2[C@@H]1O[C@@H]2COP(=O)(O)O[C@H]2[C@H]1O` showed an EC50 of 32.7 nM.
`Nc1nc2c(nc(Br)n2[C@@H]2O[C@@H]3COP(=O)(O)O[C@H]3[C@H]2O)c(=O)[nH]1` was tested, and the EC50 was 7830 nM.
Compound `CCOP1(=O)OCC2OC(n3cnc4c(N)ncnc43)C(O)C2O1` (stereo not given) has an EC50 of 2680 nM.
In the case of `CCCC(=O)Nc1ncnc2c1ncn2[C@@H]1O[C@@H]2OP(=O)(O)OC[C@H]2[C@H]1OC(=O)CCC`, the EC50 is reported as 6700 nM.

— PubChem BioAssay AID504896 (The Scripps Research Institute Molecular Screening Center, 2011)
